Laboratory results from patent US20260317367A1, “SALTS INCLUDING CRYSTALLINE SALTS OF 25-HYDROXY-CHOLEST-5-EN-3-SULFATE AND METHODS FOR PREPARING SAME” (Durect Corporation, priority 2022, published 2026).
Counter-ions that a name gives are not always drawn. One block for each compound: values may come before it.

Experiments:
Type in all cases: physicochemical
[1] = Solubility of 25HC3S salts after one day at room temperature (HPLC, as free acid); details: one day
How it was run: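 HPLC quantified the clear supernatant after centrifugation, with organic-solvent samples diluted in water:MeOH 95:5 and aqueous ones undiluted; results are mg/mL as free acid (LOD 0.0007 mg/mL). Each salt was first equilibrated as a suspension with excess solid for one day on a room-temperature shaker.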

[2] = Appearance (color, clumping, flowability) of stored 25HC3S salts
[3] = Overall rank order of powder flowability (angle of repose and Hausner ratio); details: for Powder flowability, overall (in words): angle of repose and compressibility index/Hausner ratio combined; for Angle of Repose Rank Order / Hausner Ratio Rank Order / Overall Rank Order (Total Score): lower is better flow; for Overall Rank Order (Total Score): sum of both ranks
From the text: Table C5 was generated by adding the relative rank order of the 25HC3S salts for angle of repose and Hausner ratio results, and creating an Over All Rank Order of the salts powder flowability. The salts with the lower overall rank order score had better powder flowability.

[4] = Angle of repose of 25HC3S salts; details: for Flow Property per USP<1174> Powder Flow: classification by angle of repose
How it was run: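 About 2 g of salt powder was poured through a 7 mm inner-diameter tube into a 21.14 mm rubber O-ring, forming a cone of fixed diameter. Cone height was measured with calipers and the angle of repose was calculated from it. Flow was classified per USP<1174>.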

[5] = Solid-state chemical stability of 25HC3S salts at 2-8° C., 60° C. and 80° C. (HPLC assay and degradation products); details: for % Impurities, Total / % Impurities, 25-HC: ND = Not Detected; for % Impurities, 25-HC: 25-Hydroxy-Cholesterol; for % Recovery: vs 2-8° C.; for Stability after 1 week at 60° C. (in words) / Stability after 3 weeks at 80° C. (in words): solid state; for Stability after 1 week at 60° C. (in words): 1 week (after 3 weeks at 2-8° C.)
How it was run: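 Crystalline 25HC3S salts (~25 mg powder per vial) stored at 2-8° C. or 80° C., pulled at 3 and 6 weeks; some 3-week 2-8° C. vials moved to 60° C. for 1 week. Dissolved in 100% methanol (sonication/vortexing, centrifugation or dilution), then HPLC against 25HC3S sodium standards (0.75-1.25 mg/mL) for assay and degradants.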

[6] = Final pH of the solubility sample solutions in aqueous media; details: for pH of the solubility sample, 0.9% Sodium Chloride: 0.9% sodium chloride (blank 5.8); for pH of the solubility sample, 5% Dextrose: 5% dextrose (blank 4.7); for pH of the solubility sample, FaSSGF: FaSSGF (blank 1.5, 1.6); for pH of the solubility sample, FaSSIF: FaSSIF (blank 6.5, 6.5); for pH of the solubility sample, FeSSIF: FeSSIF (blank 4.9, 5.0); for pH of the solubility sample, Water: water (blank 6.3)
How it was run: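 Undiluted HPLC assay of centrifuged (12000 rpm, 12–15 min) supernatants from aqueous 25HC3S salt suspensions. These suspensions were kept with excess solid and shaken one day at room temperature, 210 motions/min.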

[7] = room temperature, listed as crystalline 25HC3S hydroxyethylpyrrolidinium
[8] = 2-8° C., 3 wk, listed as 25HC3S hydroxyethylpyrrolidinium
[9] = 80° C., 3 wk, listed as 25HC3S hydroxyethylpyrrolidinium
[10] = listed as 25HC3S hydroxyethylpyrrolidinium
[11] = 60° C., 1 wk, listed as 25HC3S hydroxyethylpyrrolidinium
[12] = 2-8° C., 3 wk, listed as 25HC3S meglumine
[13] = 80° C., 3 wk, listed as 25HC3S meglumine
[14] = 60° C., 1 wk, listed as 25HC3S meglumine

Solubility in 0.9% NaCl ([1]; 0.9% NaCl, room temperature, as free acid, ND = not detected, detection limit 0.7 μg/mL, 1440 min, listed as 25HC3S hydroxyethylpyrrolidinium): 3 µg/mL | Solubility in 5% Dextrose ([1]; room temperature, as free acid, LOD 0.0007 mg/mL, 1440 min): 642 µg/mL | Solubility in 5% Dextrose ([1]; room temperature, as free acid, ND = not detected, detection limit 0.7 μg/mL, 1440 min, listed as 25HC3S hydroxyethylpyrrolidinium): 642 µg/mL | Solubility in acetonitrile (in words) ([1]; ACN, room temperature): relatively high solubility | Solubility in FaSSGF (in words) ([1]; FaSSGF, room temperature): high solubility | Solubility in FaSSGF ([1]; FaSSGF, room temperature, as free acid, ND = not detected, detection limit 0.7 μg/mL, 1440 min, listed as 25HC3S hydroxyethylpyrrolidinium): 10 µg/mL | Solubility in FaSSIF (in words) ([1]; FaSSIF, room temperature): high solubility | Solubility in FaSSIF ([1]; FaSSIF, room temperature, as free acid, 1440 min, listed as 25HC3S hydroxyethylpyrrolidinium): 161 µg/mL | Solubility in FaSSIF (in words) ([1]; FaSSIF, room temperature, listed as crystalline 25HC3S hydroxyethylpyrrolidinium): relatively high solubility | Solubility in FaSSIF ([1]; Fasted State Simulated Intestinal Fluid, room temperature, as free acid, 1440 min): 161 µg/mL | Solubility in FeSSIF (in words) ([1]; room temperature): high solubility | Solubility in FeSSIF (in words) [1, 7]: relatively high solubility | Solubility in methanol (in words) ([1]; MeOH, room temperature): did not reach saturation | Solubility in ACN ([1]; acetonitrile, room temperature, as free acid, 1440 min, listed as 25HC3S hydroxyethylpyrrolidinium): 1200 µg/mL | Solubility in 5% dextrose (in words) ([1]; room temperature): highest solubility | Solubility in 5% dextrose (in words) [1, 7]: relatively high solubility | Solubility in IPA ([1]; isopropyl alcohol, room temperature, as free acid, 1440 min, listed as 25HC3S hydroxyethylpyrrolidinium): 6700 µg/mL | Solubility in saline / 0.9% sodium chloride (in words) ([1]; room temperature): highest solubility | Solubility in water (in words) ([1]; water, room temperature): highest solubility | Solubility in H2O ([1]; water, room temperature, as free acid, ND = not detected, detection limit 0.7 μg/mL, 1440 min, listed as 25HC3S hydroxyethylpyrrolidinium): 273 µg/mL | Appearance [2, 8]: White, free flowing powder with clumping | Appearance ([2]; 60° C., 1 wk (after 3 weeks at 2-8° C.), listed as 25HC3S hydroxyethylpyrrolidinium): White, free flowing powder with clumping | Appearance after 3 weeks at 80° C. ([2]; 80° C.): completely burned | Appearance [2, 9]: Dark brown, melted material stuck to | Powder flowability, overall (in words) ([3]; listed as hydroxyethylpyrrolidinium): poorer flowability | Angle of Repose Rank Order [3, 10]: 15 | Hausner Ratio Rank Order [3, 10]: 10 | Overall Rank Order (Total Score) [3, 10]: 25 | Flow Property per USP<1174> Powder Flow [4, 10]: Poor - must agitate, | Angle of Repose [4, 10]: 53.8 degrees | Angle of Repose, Rounded Whole Number [4, 10]: 54 degrees | Assay ([5]; 2-8° C., 3 wk, 30240 min, listed as 25HC3S hydroxyethylpyrrolidinium): 100.5 % w/w | % Impurities, Total [5, 8]: 2.0% | % Impurities, 25-HC [5, 8]: 0.3% | % Impurities, 25-HC [5, 11]: 0.4% | % Impurities, 25-HC [5, 9]: 0.3% | Physical and chemical solid-state stability (comments) ([5]; 60° C., 1 week, listed as 25HC3S Hydroxyethylpyrrolidinium): Stable after 1 week at 60 °C | Assay ([5]; 60° C., 1 wk (after 3 weeks at 2-8° C.), 10080 min, listed as 25HC3S hydroxyethylpyrrolidinium, 10080 min): 104.9 % w/w | % Recovery of 2-8° C./3 wk vs 60° C./1 wk ([5]; 60° C., 1 wk, 10080 min, listed as 25HC3S hydroxyethylpyrrolidinium): 104.4% | % Impurities, Total [5, 11]: 1.8% | Physical and chemical solid-state stability (comments) ([5]; 80° C., 3 weeks, listed as 25HC3S Hydroxyethylpyrrolidinium): totally decomposed after 3 | % Recovery ([5]; 80° C., 3 wk, 30240 min, listed as 25HC3S hydroxyethylpyrrolidinium, 30240 min): 0.0% | Assay ([5]; 80° C., 3 wk, 30240 min, listed as 25HC3S hydroxyethylpyrrolidinium): 0.0 % w/w | % Impurities, Total [5, 9]: 99.9% | Stability after 1 week at 60° C. (in words) ([5]; 60° C.): stable | Stability after 3 weeks at 80° C. (in words) ([5]; 80° C., 3 weeks): totally decomposed | pH of the solubility sample, 0.9% Sodium Chloride [6, 10]: 8.3 | pH of the solubility sample, 5% Dextrose [6, 10]: 6.4 | pH of solubility sample solution in 5% dextrose ([6]; 5% dextrose (medium pH 4.7)): 6.4 | pH of the solubility sample, FaSSGF [6]: 1.6 | pH of the solubility sample, FaSSIF [6, 10]: 6.5 | pH of the solubility sample, FeSSIF [6, 10]: 4.9 | pH of the solubility sample, Water [6, 10]: 8.2
Compound: CC(CCCC(C)(C)O)C1CCC2C3CC=C4CC(OS(=O)(=O)O)CCC4(C)C3CCC12C (centres unmarked) [Salt #6]

Solubility in FaSSGF (in words) ([1]; FaSSGF, room temperature): high solubility | Solubility in FaSSGF (in words) ([1]; FaSSGF, room temperature, listed as crystalline 25HC3S meglumine): relatively high solubility | Solubility in FaSSIF (in words) ([1]; FaSSIF, room temperature): high solubility | Solubility in FaSSGF ([1]; Fasted State Simulated Gastric Fluid, pH 1.6, room temperature, as free acid, LOD 0.0007 mg/mL, 1440 min): 48 µg/mL | Solubility in FeSSIF (in words) ([1]; room temperature): high solubility | Solubility in saline / 0.9% sodium chloride (in words) ([1]; room temperature, listed as crystalline 25HC3S meglumine): low solubility | Appearance [2, 12]: White, free flowing powder, no clumping | Appearance ([2]; 60° C., 1 wk (after 3 weeks at 2-8° C.), listed as 25HC3S meglumine): White, free flowing powder, no clumping | Appearance after 3 weeks at 80° C. ([2]; 80° C.): completely burned | Appearance [2, 13]: Light brown, partially melted material | Powder flowability, overall (in words) ([3]; listed as meglumine): next group | Angle of Repose Rank Order ([3]; listed as 25HC3S meglumine): 5 | Hausner Ratio Rank Order ([3]; listed as 25HC3S meglumine): 12 | Overall Rank Order (Total Score) ([3]; listed as 25HC3S meglumine): 17 | Flow Property per USP<1174> Powder Flow ([4]; listed as 25HC3S meglumine): Fair - aid not needed | Angle of Repose ([4]; listed as 25HC3S meglumine): 37.3 degrees | Angle of Repose, Rounded Whole Number ([4]; listed as 25HC3S meglumine): 37 degrees | Assay ([5]; 2-8° C., 3 wk, 30240 min, listed as 25HC3S meglumine): 98.3 % w/w | % Impurities, Total [5, 12]: 0.9% | % Impurities, 25-HC [5, 14]: 0.4% | Physical and chemical solid-state stability (comments) ([5]; 60° C., 1 week, listed as 25HC3S Meglumine): Stable after 1 week at 60 °C | Assay ([5]; 60° C., 1 wk (after 3 weeks at 2-8° C.), 10080 min, listed as 25HC3S meglumine, 10080 min): 104.6 % w/w | % Recovery of 2-8° C./3 wk vs 60° C./1 wk ([5]; 60° C., 1 wk, 10080 min, listed as 25HC3S meglumine): 106.4% | % Impurities, Total [5, 14]: 1.7% | Physical and chemical solid-state stability (comments) ([5]; 80° C., 3 weeks, listed as 25HC3S Meglumine): totally decomposed after 3 | % Recovery ([5]; 80° C., 3 wk, 30240 min, listed as 25HC3S meglumine, 30240 min): 0.0% | Assay ([5]; 80° C., 3 wk, 30240 min, listed as 25HC3S meglumine): 0.0 % w/w | % Impurities, Total [5, 13]: 100.3% | Stability after 1 week at 60° C. (in words) ([5]; 60° C.): stable | Stability after 3 weeks at 80° C. (in words) ([5]; 80° C., 3 weeks): totally decomposed | pH of the solubility sample, 0.9% Sodium Chloride ([6]; listed as 25HC3S meglumine): 7.2 | pH of the solubility sample, 5% Dextrose ([6]; listed as 25HC3S meglumine): 7.2 | pH of the solubility sample, FaSSGF [6]: 1.6 | pH of the solubility sample, FaSSIF ([6]; listed as 25HC3S meglumine): 6.5 | pH of the solubility sample, FeSSIF [6]: 5.0 | pH of the solubility sample, Water ([6]; listed as 25HC3S meglumine): 8.5
Compound: CC(CCCC(C)(C)O)C1CCC2C3CC=C4CC(OS(=O)(=O)O)CCC4(C)C3CCC12C (centres unmarked) [Salt #7]
